Measured values from PMC8041433 (Environmental Health Perspectives, 2021).
Several values for one entry are separate records, joined by “and”; a condition that tells them apart may be missing. Equal entries are not always repeated. Structures can show the parent of a compound that is named as a salt. Where two headings read alike, the source gives them in different places.

Key:
recombinant human AChE [1] = molecular target: T1, recombinant human AChE (Homo sapiens, UniProt P22303); for IR or R: key: Reversible (R); Irreversible (IR); ND, not detected in enzyme-based AChE inhibition assay from current study
[2] = molecular target: AChE in neural stem cells (Homo sapiens, UniProt P22303); assay: cell-based
[3] = molecular target: AChE in SH-SY5Y spheroids (Homo sapiens, UniProt P22303); assay: cell-based; settings: potency (IC50)
recombinant human AChE [4] = molecular target: T1, recombinant human AChE; assay: biochemical
recombinant human AChE [5] = molecular target: T1, recombinant human AChE; assay: biochemical; remark: listed apart in the source
[6] = molecular target: AChE in neural stem cell spheroids (Homo sapiens, UniProt P22303); assay: cell-based; settings: for IC50: potency (IC50)
AChE in SH-SY5Y cells = AChE in SH-SY5Y cells (Homo sapiens, UniProt P22303); assay: cell-based
recombinant human AChE [7] = molecular target: T1, recombinant human AChE; assay: biochemical; type: biochemical; settings: for AC50: AC50 (uM)
recombinant human AChE [8] = molecular target: T1, recombinant human AChE; assay: biochemical; remark: listed apart in the source
[9] = Neural stem cell spheroid (24 h)
[10] = Neural stem cell spheroid (48 h)
[11] = potency (IC50), SH-SY5Y cells monolayer
[12] = potency (IC50), Enzyme with microsomes

Chain of AChE in SH-SY5Y spheroids (P22303 32-614): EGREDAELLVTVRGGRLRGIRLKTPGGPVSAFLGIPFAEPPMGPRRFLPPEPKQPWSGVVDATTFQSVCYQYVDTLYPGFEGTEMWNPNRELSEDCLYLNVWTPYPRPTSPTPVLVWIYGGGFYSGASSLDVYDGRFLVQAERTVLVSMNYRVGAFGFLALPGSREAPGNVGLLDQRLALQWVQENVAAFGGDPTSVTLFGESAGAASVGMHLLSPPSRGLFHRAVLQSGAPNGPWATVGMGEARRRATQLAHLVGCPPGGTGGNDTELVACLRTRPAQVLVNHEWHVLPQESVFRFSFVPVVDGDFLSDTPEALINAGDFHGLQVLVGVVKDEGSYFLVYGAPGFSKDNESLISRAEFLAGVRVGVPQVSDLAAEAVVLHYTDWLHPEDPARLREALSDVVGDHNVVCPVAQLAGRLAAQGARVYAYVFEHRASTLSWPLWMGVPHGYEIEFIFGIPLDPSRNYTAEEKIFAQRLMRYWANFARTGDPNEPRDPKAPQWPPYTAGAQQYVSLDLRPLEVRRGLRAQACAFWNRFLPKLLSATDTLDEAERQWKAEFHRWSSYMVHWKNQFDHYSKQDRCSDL
Chain of AChE in SH-SY5Y cells (P22303 32-614): as above
T1 sequence (P22303 32-614): as above
Chain of AChE in neural stem cells (P22303 32-614): as above
Chain of AChE in neural stem cell spheroids (P22303 32-614): as above

| SMILES | CC-v2 (curve classes) (recombinant human AChE [1]) | Efficacy (recombinant human AChE [1]) | IC50 [2] | IC50 ([3]; SH-SY5Y spheroids (24 h)) | IC50 ([3]; SH-SY5Y spheroids (48 h)) | IC50 (recombinant human AChE [4]) | CC-v2 (curve classes) (recombinant human AChE [5]) | Efficacy (recombinant human AChE [5]) | IC50 (recombinant human AChE [5]; potency (IC50), Enzyme) | IC50 [6, 9] | IC50 [6, 10] | CC-v2 (curve classes) (AChE in SH-SY5Y cells) | IC50 (AChE in SH-SY5Y cells; IC50 (uM)) | IC50 (AChE in SH-SY5Y cells; [11]) | IR or R (recombinant human AChE [7]) | AC50 (recombinant human AChE [7]) | IC50 (recombinant human AChE [8]; [12]) | AC50 (recombinant human AChE [7]; activity_5) | AC50 (recombinant human AChE [7]; activity_10) | AC50 (recombinant human AChE [7]; activity_60) | other results |
| --- | --- | --- | --- | --- | --- | --- | --- | --- | --- | --- | --- | --- | --- | --- | --- | --- | --- | --- | --- | --- | --- |
| O=C(Nc1cccc(C2=NCCN2)c1)Nc1cccc(C2=NCCN2)c1 [Imidocarb dipropionate, reference compound] | 4 | 0 | 19.3 µM | 6.56 ± 6.21 µM | 7.41 ± 0.48 µM | 25.7 ± 5.81 µM | -2.1 | -76.607 | 18.5 ± 10.1 µM | 19.4 ± 2.22 µM | 19.3 µM | -1.1 | 3.79 µM and 4.25 µM | 5.07 ± 0.64 µM | R | 15.3 µM (2×) and 17.2 µM and 19.3 µM and 10.9 µM and 13.7 µM and 21.7 µM and 12.2 µM | 27.6 ± 5.16 µM | – | – | – | IC50 (recombinant human AChE [5]; IC50 (uM)): 10.7 µM |
| CNC(=O)Oc1ccccc1C(C)C [Isoprocarb] | -2.1 | -88.562 | 21 ± 9.16 µM | 5.45 ± 4.07 µM | 12.5 µM | 9.21 ± 0.62 µM | -1.1 | -91.575 | 6.55 ± 0.83 µM | – | 39.6 µM | -1.1 | 3.56 µM and 4.48 µM | 8.21 ± 0.55 µM | R | 9.93 µM and 14 µM and 17.7 µM and 22.2 µM and 12.5 µM and 4.98 µM and 3.95 µM and 5.59 µM | 8.53 ± 0.55 µM | – | – | – | potency (IC50), Neural stem cell spheroid (24 h) [6]: Inactive |
| CCOP(=S)(OCC)Oc1cc(-c2ccccc2)on1 [Isoxathion] | -1.1 | -99.076 | 6.1 µM | 27 µM | 17.7 µM | 85.3 ± 5.56 µM | -3 | -107.392 | 44.4 µM | 0.73 µM | 1.68 µM | -2.1 | 63.3 µM and 79.6 µM | 17 µM | – | 55.9 µM (2×) and 49.8 µM (3×) and 44.4 µM (2×) | 2.11 µM | – | – | – | – |
| COc1ccc(C(=O)NCc2ccc(OCCN(C)C)cc2)cc1OC.Cl [Itopride hydrochloride, reference compound] | 4 | 0 | 11.2 ± 3.11 µM | 4.44 ± 3.53 µM | 11.2 ± 3.12 µM | 22.6 ± 1.53 µM | -2.2 | -69.798 | 12.7 ± 0.85 µM | 23.5 ± 3.23 µM | 14.2 µM | -1.1 and -2.1 | 6.92 µM and 4.9 µM and 5.5 µM | 7.68 µM | R | 15.3 µM (3×) and 21.7 µM and 17.2 µM and 19.3 µM | 19.4 ± 2.22 µM | – | – | – | IC50 (recombinant human AChE [5]; IC50 (uM)): 27.5 µM |
| COP(=S)(Oc1cc(Cl)c(Br)cc1Cl)c1ccccc1 (stereo not drawn) [Leptophos] | -1.1 | -83.877 | 58.1 µM | 54.6 µM | 44.6 µM | 48 ± 3.13 µM | -3 | -64.129 | 46.4 µM | 36.5 µM | 69 µM | -2.1 | 63.3 µM and 71 µM and 79.6 µM | 28 µM | – | 31.4 µM and 62.7 µM (3×) and 39.5 µM and 35.2 µM and 55.9 µM | 2.31 µM | – | – | – | – |
| CCOC(=O)CC(SP(=O)(OC)OC)C(=O)OCC (stereo not drawn) [Malaoxon] | -2.1 | – | 5.86 ± 1.05 µM | 4.09 ± 3.42 µM | 3.95 µM | 4.62 ± 0.31 µM | -1.1 | – | 1.46 µM | 5.05 ± 3.3 µM | 9.46 µM | -1.1 | 3.56 µM and 3.02 µM and 3.17 µM and 2.83 µM | 3.05 ± 0.52 µM | – | 22.2 µM (2×) and 9.93 µM and 7.89 µM and 25 µM and 8.85 µM (2×) and 5.59 µM and 11.1 µM | 4.43 µM | – | – | – | – |
| Cc1ccc2c(n1)Oc1ccc(C(C)C(=O)OCC(=O)N(C)C)cc1C2 (stereo not drawn) [Mepranoprofen arbamel, reference compound] | 4 | 0 | 12.7 ± 0.85 µM | 7.46 ± 3.5 µM | 18 ± 2.29 µM | 24.3 µM | -2.2 and -1.1 | – | 15.4 ± 1.77 µM | 12.5 ± 3.49 µM | 11.3 µM | -2.1 and -1.1 | 15.5 µM and 12.3 µM and 27.5 µM | 19.3 µM | – | 12.2 µM and 13.7 µM and 19.3 µM (3×) and 7.69 µM and 17.2 µM and 9.68 µM | 37.3 ± 5.13 µM | – | – | – | IC50 (recombinant human AChE [5]; IC50 (uM)): 24.5 µM and 15.5 µM |
| CNC(=O)ON=C(C)SC [Methomyl] | -1.1 | -96.277 | 7.99 ± 1.49 µM | 6.41 ± 8.14 µM | 3.81 ± 0.25 µM | 3.83 ± 0.53 µM | -1.1 | -92.651 | 1.83 ± 0.12 µM | 6.27 ± 2.23 µM | 9.75 µM | -1.1 | 1.59 µM and 2 µM | 4.11 ± 0.27 µM | R | – | 3.18 ± 0.66 µM | – | – | – | – |
| CC(=O)Oc1cc(C(C)C)c(OCCN(C)C)cc1C [Moxisylyte hydrochloride, reference compound] | -2.4 | -32.666 | 19.3 µM | 14.3 µM | 20.9 µM | 20.1 ± 1.36 µM | -2.2 | -54.154 | 21.9 µM | – | 24.3 µM | -2.1 and -1.1 | 13.8 µM | 20.1 µM | R | – | 19.3 µM | 19.3 µM and 17.2 µM and 21.7 µM | 19.3 µM and 24.3 µM and 21.7 µM | 17.2 µM and 24.3 µM and 21.7 µM | potency (IC50), Neural stem cell spheroid (24 h) [6]: Inactive |
| CNC(=C[N+](=O)[O-])NCCSCc1csc(CN(C)C)n1 [Nizatidine, reference compound] | 4 | – | 18.6 ± 1.21 µM | 7.05 ± 1.96 µM | 12.2 ± 1.41 µM | 15.6 ± 3.57 µM | -2.1 | – | 10.5 ± 0.68 µM | – | – | -1.1 and -2.1 | 14.2 µM and 12.6 µM and 12.3 µM and 13.8 µM and 11.2 µM | 7.68 µM | R | – | 20.1 ± 1.36 µM | 24.3 µM and 27.3 µM and 6.85 µM | 21.7 µM and 27.3 µM and 30.6 µM | 27.3 µM and 19.3 µM and 24.3 µM | IC50 (recombinant human AChE [5]; IC50 (uM)): 35.6 µM and 27.5 µM; potency (IC50), Neural stem cell spheroid (24 h) [6]: Inactive |
| CNC(=O)O/N=C(\SC)C(=O)N(C)C [Oxamyl] | -1.1 | – | 3.39 ± 0.22 µM | 2.28 ± 0.63 µM | 3.05 ± 0.52 µM | 2.81 ± 0.32 µM | -1.1 | – | 1.74 ± 0.48 µM | 0.96 ± 0.38 µM | 1.85 µM | -1.1 | 1.55 µM and 1.42 µM and 1.23 µM | 2.5 ± 0.28 µM | – | – | 2.16 ± 0.36 µM | 3.95 µM and 4.44 µM and 3.52 µM | 2.8 µM and 3.52 µM and 2.5 µM | 0.703 µM and 1.57 µM and 1.25 µM | – |
| CCOP(=S)(OCC)Oc1ccc([N+](=O)[O-])cc1 [Parathion] | -1.1 | – | 6.88 µM | 18.1 µM | 10.6 µM | 18 ± 2.29 µM | – | – | 22.8 µM | 3.9 µM | 9.13 µM | -2.1 | 13.8 µM and 64.1 µM and 71.9 µM | 11.3 µM | – | – | 1.27 µM | 24.3 µM and 30.6 µM | 27.3 µM and 24.3 µM | 21.7 µM and 19.3 µM | – |
| Cl.Clc1cc(Cl)c2c(c1)N=C1CCCCCN1C2 [PharmaGSID_47259] | -1.1 | -90.391 | 10.7 ± 2.66 µM | 2.24 ± 2.76 µM | 0.85 ± 0.21 µM | 1.54 ± 0.18 µM | -1.1 | -94.138 | 0.54 ± 0.06 µM | 13.5 ± 9.25 µM | 22 µM | -1.1 | 0.776 µM and 0.692 µM | 0.87 ± 0.18 µM | R | – | 1.79 ± 0.22 µM | 1.09 µM and 0.544 µM | 0.153 µM and 1.22 µM and 1.09 µM | 0.968 µM and 0.172 µM and 1.22 µM | – |
| O=C(O)/C=C/C(=O)O.O=C1c2ccccc2C(=O)N1CCc1noc(-c2ccc(CN3CCCCCC3)s2)n1 [PharmaGSID_48172] | -2.2 | -51.694 | 36.3 µM | 17.5 ± 16.2 µM | 14.5 ± 1.67 µM | 21.2 ± 1.44 µM | -2.1 | -99.042 | 11.1 ± 1.52 µM | 17.1 ± 3.86 µM | 20.5 µM | -1.1 | 6.51 µM and 8.19 µM | 16.3 ± 1.86 µM | R | – | 24.7 ± 1.61 µM | 22.9 µM and 36.3 µM and 32.3 µM | 20.4 µM and 36.3 µM and 28.8 µM | 32.3 µM and 40.7 µM and 22.9 µM | IC50 (recombinant human AChE [5]; IC50 (uM)): 23.1 µM; IC50 (recombinant human AChE [8]; IC50 (uM)): 58 µM |
| CCOC(=O)C(SP(=S)(OC)OC)c1ccccc1 (stereo not drawn) [Phenthoate] | -3 | -48.701 | 33.2 ± 15.3 µM | 1.01 ± 1.29 µM | 20.4 ± 5.69 µM | 38.1 ± 2.48 µM | -2.2 | -77.281 | 25.1 ± 2.88 µM | 26.5 ± 11.5 µM | 8.66 µM | -1.1 and -2.1 | 31.7 µM and 22.4 µM and 25.2 µM | 12.6 ± 1.44 µM | – | – | 29.1 ± 1.97 µM | 44.4 µM | 49.8 µM and 39.5 µM | 39.5 µM and 28 µM and 31.4 µM | IC50 (recombinant human AChE [5]; IC50 (uM)): 71 µM; IC50 (recombinant human AChE [8]; IC50 (uM)): 79.6 µM |
